Converted amounts (≈) assume the structure as drawn.
Experiments:
[1] = test system: Mtb TF274; test: microbe, parasite or virus in culture; type: cell-based; conditions: Mycobacterium tuberculosis, TF274, read-out: Mtb MIC TF274/ XDR
[2] = test system: Mtb KZN494; test: microbe, parasite or virus in culture; type: cell-based; conditions: Mycobacterium tuberculosis, KZN494, read-out: Mtb MIC KZN494/ MDR
[3] = test system: mutant Mtb strain IAR2; type: cell-based, Mycobacterium tuberculosis

SMILES: c1ccc(-c2ccc(-c3ccnc(CN4CCC5(CCCC5)CC4)c3)cc2)cc1 [Compound 62, 8-((4-([1,1'-Biphenyl]-4-yl)pyridin-2-yl)methyl)-8-azaspiro[4.5]decane]
- MIC [1]: 0.0039 µg/mL (≈ 0.0102 µM)
- MIC [2]: 0.0156 to 0.0313 µg/mL (≈ 0.0408 to 0.0818 µM)
- MIC IAR2 [3]: 1 µg/mL (≈ 2.61 µM)
